# Results published in the supplement of paper PMC11061612.
# Legend:
# [1] = test system: CTV-1 (T-Lymphoblastic Leukemia); experiment: Bliss excess, mean over the matrix (fraction); higher = more synergy
# In short: (§1)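 Cell lines in DMEM/F12 or RPMI with 10% FBS were plated in 1536-well plates, held 24 hours at 37°C, 5% CO2, then given two-drug dose matrices for 72 hours (DMSO typically 0.2%). Viability was read by CellTiter-Glo 2.0 luminescence and scaled as inhibition from 0 (vehicle wells) to 1 (blank wells). Combination Emax is the second-highest inhibition in the matrix; Bliss excess is observed combination effect minus expected EA + EB − EA·EB, EA and EB being single-agent effects.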
# [2] = test system: 697 (B-Lymphoblastic Leukemia); experiment: as above
# In short: as §1
# [3] = test system: TGBC24TKB (Biliary Tract Carcinoma); experiment: as above
# In short: as §1
# [4] = test system: SNU-C5 (Colorectal Carcinoma); experiment: as above
# In short: as §1
# IGR-1 (Melanoma) = experiment: as above
# In short: as §1
# [5] = test system: HPAC (Pancreatic Carcinoma); experiment: as above
# In short: as §1
# [6] = test system: NCI-H1781 (Lung Adenocarcinoma); experiment: as above
# In short: as §1
# [7] = test system: KATOIII (Gastric Carcinoma); experiment: as above
# In short: as §1
# [8] = test system: SW1783 (Low Grade Glioma); experiment: as above
# In short: as §1
# [9] = test system: IHH-4 (Thyroid Gland Carcinoma); experiment: as above
# In short: as §1
# SN12C (Kidney Carcinoma) [10] = experiment: as above
# In short: as §1
# [11] = test system: C3A (Hepatocellular Carcinoma); experiment: combination Emax (second highest fraction inhibited in the dose matrix, 72 h); higher = more inhibition; extreme values may be limits of the assay
# In short: as §1
# [12] = test system: LS-513 (Colorectal Carcinoma); experiment: as above
# In short: as §1
# [13] = test system: NCI-H1793 (Lung Adenocarcinoma); experiment: as above
# In short: as §1
# [14] = test system: EM-2 (Chronic Myelogenous Leukemia); experiment: as above
# In short: as §1
# [15] = test system: IHH-4 (Thyroid Gland Carcinoma); experiment: as above
# In short: as §1
# SN12C (Kidney Carcinoma) [16] = experiment: as above
# In short: as §1
# [17] = test system: DOV13 (Ovarian Carcinoma); experiment: as above
# In short: as §1
# [18] = test system: KM-H2 (Hodgkin's Lymphoma); experiment: as above
# In short: as §1
# [19] = test system: MDA-MB-157 (Breast Carcinoma); experiment: as above
# In short: as §1
# 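Wherever Bliss excess, mean over the matrix is given: after 72 h of two-drug dosing.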
Structure (SMILES),Bliss excess [1],Bliss excess [2],Bliss excess [3],Bliss excess [4],Bliss excess (IGR-1 (Melanoma)),Bliss excess [5],Bliss excess [6],Bliss excess [7],Bliss excess [8],Bliss excess [9],Bliss excess (SN12C (Kidney Carcinoma) [10]),combination Emax [11],combination Emax [12],combination Emax [13],combination Emax [14],combination Emax [15],combination Emax (SN12C (Kidney Carcinoma) [16]),combination Emax [17],combination Emax [18],combination Emax [19]
"CC1(C)CCC(CN2CCN(c3ccc(C(=O)NS(=O)(=O)c4ccc(NCC5CCOCC5)c([N+](=O)[O-])c4)c(Oc4cnc5[nH]ccc5c4)c3)CC2)=C(c2ccc(Cl)cc2)C1 [Venetoclax] + C=CCn1c(=O)c2cnc(Nc3ccc(N4CCN(C)CC4)cc3)nc2n1-c1cccc(C(C)(C)O)n1 [AZD1775] (first compound max 1 µM, partner max 1 µM)",-0.0327,0.0509,-0.0108,-0.0339,0.0147,-0.0565,-0.0767,0.0093,-0.0007,-0.0654,0,0.572,0.697,0.481,0.949,0.711,0.381,0.912,0.974,0.905
"CN(CCO)CC[C@H](CSc1ccccc1)Nc1ccc(S(=O)(=O)NC(=O)c2ccc(N3CCC([C@@H](O)c4ccccc4-c4ccc(Cl)cc4)CC3)cc2)cc1S(=O)(=O)C(F)(F)F [AZD4320] + CCN(CCO)CCCOc1ccc2c(Nc3cc(CC(=O)Nc4cccc(F)c4)[nH]n3)ncnc2c1 [AZD2811] (first compound max 1 µM, 7x7, partner max 1 µM)",0.0053,0.0021,0.0337,0.0121,0.148,0.0486,-0.0788,-0.0434,-0.0701,-0.0372,-0.0249,0.22,0.414,0.283,0.985,0.282,0.169,0.908,0.196,0.257
"CCN(CCO)CCCOc1ccc2c(Nc3cc(CC(=O)Nc4cccc(F)c4)[nH]n3)ncnc2c1 [AZD2811] + C[C@@H]1COCCN1C2=NC(=NC(=C2)C3(CC3)[S@](=N)(=O)C)C4=C5C=CNC5=NC=C4 [AZD6738] (first compound max 1 µM, 7x7, partner max 10 µM)",0.0009,0.0013,-0.0407,-0.0418,0.0315,-0.0244,0.0216,-0.0477,-0.0501,-0.0583,-0.0641,0.464,0.746,0.327,0.968,0.763,0.212,0.873,0.766,0.894
"CC(=O)c1c(C)c2cnc(Nc3ccc(N4CCNCC4)cn3)nc2n(C2CCCC2)c1=O [Palbociclib] + Cc1c2c(nn1C)CSCc1cc(n(C)n1)CSc1cc(c3ccccc3c1)OCCCc1c(C(=O)O)n(C)c3c-2c(Cl)ccc13 [AZD5991] (first compound max 10 µM, 7x7, partner max 1 µM)",-0.0096,-0.0709,0.0597,-0.0377,0.0047,-0.0423,-0.0608,0.0505,-0.0248,-0.0171,-0.0358,0.592,0.658,0.212,0.484,0.411,0.166,0.752,0.567,0.669
"COc1cc2c(cc1OCCCCCOc1cc3c(cc1OC)C(=O)N1C=C(C)C[C@H]1C=N3)N=C[C@@H]1CC(C)=CN1C2=O [SG3199] + O=C(c1cc(Cc2n[nH]c(=O)c3ccccc23)ccc1F)N1CCN(C(=O)C2CC2)CC1 [Olaparib] (first compound max 0.001 µM, 7x7, partner max 10 µM)",-0.013,0.0376,-0.0087,-0.0362,-0.0189,-0.0232,-0.0305,-0.0365,-0.0446,-0.0115,-0.0697,0.215,0.155,0.138,0.292,0.193,0.172,0.249,0.264,0.0754
"Cn1cnc2c(F)c(Nc3ccc(Br)cc3Cl)c(C(=O)NOCCO)cc21 [Selumetinib] + C=CCn1c(=O)c2cnc(Nc3ccc(N4CCN(C)CC4)cc3)nc2n1-c1cccc(C(C)(C)O)n1 [AZD1775] (first compound max 10 µM, partner max 1 µM)",0.0039,-0.0131,-0.0027,0.0241,0.0466,-0.0467,-0.063,0.0186,-0.0939,-0.0083,-0.0228,0.777,0.904,0.423,0.92,0.742,0.241,0.637,0.926,0.48
"CC1(C)CCC(CN2CCN(c3ccc(C(=O)NS(=O)(=O)c4ccc(NCC5CCOCC5)c([N+](=O)[O-])c4)c(Oc4cnc5[nH]ccc5c4)c3)CC2)=C(c2ccc(Cl)cc2)C1 [Venetoclax] + CN(C)CCCOc1ccc(-c2ccc3ncc4c(c3c2)n(C2CCOCC2)c(=O)n4C)cn1 [AZD0156] (first compound max 1 µM, 7x7, partner max 1 µM)",-0.0103,-0.0012,0.0307,-0.0123,0.0116,-0.0146,0.0048,-0.0156,-0.0532,-0.0153,-0.0307,0.17,0.316,0.248,0.174,0.129,0.249,0.326,0.206,0.596
"CC(=O)c1c(C)c2cnc(Nc3ccc(N4CCNCC4)cn3)nc2n(C2CCCC2)c1=O [Palbociclib] + Cn1cnc2c(F)c(Nc3ccc(Br)cc3Cl)c(C(=O)NOCCO)cc21 [Selumetinib] (first compound max 10 µM, 7x7, partner max 10 µM)",0.0496,-0.0685,0.0495,-0.0615,0.0661,0.0461,-0.0532,0.0393,-0.0447,0.0575,-0.0321,0.556,0.876,0.318,0.459,0.59,0.283,0.467,0.47,0.147
"Cn1cnc2c(F)c(Nc3ccc(Br)cc3Cl)c(C(=O)NOCCO)cc21 [Selumetinib] + C[C@@H]1COCCN1C2=NC(=NC(=C2)C3(CC3)[S@](=N)(=O)C)C4=C5C=CNC5=NC=C4 [AZD6738] (first compound max 10 µM, 7x7, partner max 10 µM)",-0.001,0.0344,0.0704,0.0751,0.0257,-0.0015,-0.0397,-0.0433,-0.103,0.0224,-0.0169,0.759,0.897,0.524,0.954,0.646,0.192,0.763,0.751,0.92
"CN(C)CCCOc1ccc(-c2ccc3ncc4c(c3c2)n(C2CCOCC2)c(=O)n4C)cn1 [AZD0156] + O=C(c1cc(Cc2n[nH]c(=O)c3ccccc23)ccc1F)N1CCN(C(=O)C2CC2)CC1 [Olaparib] (first compound max 3 µM, partner max 3 µM)",0.0654,0.186,0.0104,0.0621,-0.0006,0.0152,0.0077,-0.0125,0.007,0.0949,-0.0357,0.22,0.267,0.496,0.306,0.516,0.102,0.608,0.401,0.27
"COc1cccc(OCCCN)c1-c1cc(Nc2cnc(C#N)cn2)n[nH]1 [Prexasertib] + CCc1c2c(nc3ccc(O)cc13)-c1cc3c(c(=O)n1C2)COC(=O)[C@]3(O)CC [SN-38] (first compound max 1 µM, 7x7, partner max 0.3 µM)",-0.0461,0.0017,0.0191,-0.0375,0.0316,0.0446,-0.0105,-0.0168,-0.0739,-0.0653,-0.0237,0.649,0.751,0.769,0.982,0.965,0.76,0.959,0.944,0.989
"CN(C)CCCOc1ccc(-c2ccc3ncc4c(c3c2)n(C2CCOCC2)c(=O)n4C)cn1 [AZD0156] + CCN(CCO)CCCOc1ccc2c(Nc3cc(CC(=O)Nc4cccc(F)c4)[nH]n3)ncnc2c1 [AZD2811] (first compound max 1 µM, 7x7, partner max 1 µM)",0.0458,-0.015,-0.0009,0.0043,-0.0235,0.012,0.0374,-0.0366,-0.0452,0.0153,-0.0563,0.129,0.508,0.182,0.852,0.322,0.12,0.493,0.327,0.153
"NC1(C(=O)N[C@@H](CCO)c2ccc(Cl)cc2)CCN(c2ncnc3[nH]ccc23)CC1 [Capivasertib] + CC(C)n1c(=O)n(C)c2cnc3cc(F)c(-c4ccc(OCCCN5CCCCC5)nc4)cc3c21 [AZD1390] (first compound max 10 µM, 7x7, partner max 0.3 µM)",-0.0908,-0.0197,-0.0261,-0.052,-0.0607,-0.0699,-0.0696,-0.118,-0.0625,-0.0074,-0.0454,0.255,0.471,0.265,0.426,0.203,0.205,0.462,0.222,0.25
"Cc1c2c(nn1C)CSCc1cc(n(C)n1)CSc1cc(c3ccccc3c1)OCCCc1c(C(=O)O)n(C)c3c-2c(Cl)ccc13 [AZD5991] + Cn1cnc2c(F)c(Nc3ccc(Br)cc3Cl)c(C(=O)NOCCO)cc21 [Selumetinib] (first compound max 1 µM, 7x7, partner max 3 µM)",0.036,-0.0462,0.0488,-0.0107,0.0239,0.005,-0.0165,-0.0085,-0.0782,-0.026,-0.0425,0.487,0.796,0.244,0.609,0.385,0.246,0.252,0.191,0.641
